# In publication PMC11079024, “Identification of a family of species-selective complex I inhibitors as potential anthelmintics” (Nature Communications, 2024):
# pIC50: −log10 of the molar value. Values joined by “and” are separate entries in the source; they are usually repeats but may differ in a detail not shown here. Equal entries are not always repeated. Where two headings read alike, the source gives them in different places.
# Target: M. musculus (heart) complex I (Mus musculus, UniProt P03888+Q91WD5+Q9DC70)
# Sequence (Q91WD5 34-463): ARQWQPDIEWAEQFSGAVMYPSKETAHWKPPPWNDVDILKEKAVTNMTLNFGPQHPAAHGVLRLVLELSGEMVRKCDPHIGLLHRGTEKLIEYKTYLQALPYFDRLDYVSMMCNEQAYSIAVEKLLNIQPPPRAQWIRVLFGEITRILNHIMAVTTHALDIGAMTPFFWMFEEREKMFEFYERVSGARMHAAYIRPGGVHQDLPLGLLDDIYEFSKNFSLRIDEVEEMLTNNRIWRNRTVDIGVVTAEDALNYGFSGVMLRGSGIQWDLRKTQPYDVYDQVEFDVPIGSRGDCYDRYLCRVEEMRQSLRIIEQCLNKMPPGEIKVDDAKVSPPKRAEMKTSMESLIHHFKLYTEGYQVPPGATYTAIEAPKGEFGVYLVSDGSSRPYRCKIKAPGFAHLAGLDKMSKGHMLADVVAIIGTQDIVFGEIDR
# Sequence (Q9DC70 36-224): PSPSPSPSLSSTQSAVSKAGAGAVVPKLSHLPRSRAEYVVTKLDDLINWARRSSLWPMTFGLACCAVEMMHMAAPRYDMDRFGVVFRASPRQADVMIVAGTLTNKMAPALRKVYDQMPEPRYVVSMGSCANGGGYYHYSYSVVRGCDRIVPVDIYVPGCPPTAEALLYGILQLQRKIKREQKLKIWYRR
# Sequence (P03888 whole entry): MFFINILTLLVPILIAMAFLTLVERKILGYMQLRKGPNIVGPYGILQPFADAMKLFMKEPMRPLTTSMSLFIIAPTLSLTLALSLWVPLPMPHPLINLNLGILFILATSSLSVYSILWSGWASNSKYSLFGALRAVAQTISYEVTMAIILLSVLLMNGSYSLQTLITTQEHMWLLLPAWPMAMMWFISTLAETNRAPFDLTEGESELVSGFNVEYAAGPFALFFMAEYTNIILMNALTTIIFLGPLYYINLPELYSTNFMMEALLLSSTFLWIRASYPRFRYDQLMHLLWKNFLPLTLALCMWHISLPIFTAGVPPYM
# Test: biochemical
# Format: biochemical
# Set-up: Complex I activity, dose-response data: unit not given here
# Details: for pIC50: heart mitochondria
# Procedure: Six 8–10-week-old C57Bl/6 female mice (Charles River) were freshly dissected, and their livers and hearts collected into separate 1.5 mL microcentrifuge tubes. Organs were flash-frozen in liquid nitrogen and stored at −80 °C prior to use. The heart of a freshly slaughtered adult cow was obtained from a local abattoir (Peel Sausage Inc.), chopped into ~1-inch cubes and collected into 50 mL falcon tubes. Falcon tubes were flash-frozen in a container of dry ice and stored at −80 °C prior to use. Isolation of mitochondria from all mammalian tissue was carried out following the protocol described above. However, due to size, the initial homogenization of tissue was performed by 15 strokes in a dounce homogenizer (mouse heart) or with several 5 s pulses in small Nutribullet blender (cow heart). All mouse protocols for mouse care and dissection were reviewed and approved by the University of Toronto Animal Care Committee, in accordance with the Canadian Council on Animal Care.
# The enzymatic activities of individual ETC complexes (I-IV) were assessed spectrophotometrically in isolated mitochondria using a Varioskan LUX Multimode plate reader (ThermoFisher Scientific). Mitochondrial pellets previously isolated were thawed on ice and resuspended in ice-cold isolation buffer (250 mM sucrose, 10 mM Tris (pH 7.5), 1 mM EDTA). The BCA assay (Walker, 1994) was used to quantify the protein concentration of mitochondria suspensions; solutions were diluted to a concentration of 0.2 mg/mL for use in all assays. For the complex I assay, mitochondria pellets were freeze-thawed on ice three times to increase enzyme accessibility. […] 20 μL mitochondria suspension was then added/mixed with a pipette to initiate the reaction. Immediately following the addition of mitochondria, absorbance was measured (complex I and II: 600 nm; complex III and IV: 550 nm) in 30 s intervals over 15 min. Enzymatic activity was determined in each reaction by plotting absorbance versus time and calculating the slope of the curve during the initial linear phase of the reaction. […] Percent activity of each complex was calculated by dividing the enzyme-specific activity of each well by the enzyme-specific activity of the corresponding solvent controls.
# Chemical solutions were prepared in complex I assay buffer composed of 25 mM KPi buffer (pH 7.5), 3 mg/mL bovine serum albumin (BSA), 80 μM NADH, 60 μM decylubiquinone, 160 μM DCIP, 2 μM antimycin A and 2 mM KCN.
# For preliminary screens of hit compounds, compounds were screened at 100 μM; data are the average of at least three biological replicates. The complex I and II activity assays were used for additional dose-response experiments. […] For dose responses of benzimidazole analogs, data represent the average of two biological replicates. For all other dose-responses, data represent the average of at least three biological replicates.
# [1] = M. musculus (heart) mitochondria, mean of replicates, read-out: percent (%) in vitro complex I activity relative to solvent control
# [2] = M. musculus (heart) mitochondria, single replicate, read-out: percent (%) in vitro complex I activity relative to solvent control
smiles,measurement,setting,value
COc1cc2c(cc1OC)C(c1ccc(-c3ccc(Cl)c(Cl)c3)o1)=NCC2 [NPD3577],activity at 0.0001 µM,"M. musculus, dose 0.0001 µM, Mean of replicates, read-out: Complex I activity, dose-response data",99.3%
same,"Complex I activity, dose-response data","M. musculus, dose 0.0001 µM, individual replicates (Rep)",99.760 and 97.530 and 100.984
same,activity at 0.0001 µM,"M. musculus, dose 0.0001 µM, individual replicates (Rep), read-out: Complex I activity, dose-response data",98.7%
same,activity at 0.0005 µM,"M. musculus, dose 0.0005 µM, Mean of replicates, read-out: Complex I activity, dose-response data",99.8%
same,"Complex I activity, dose-response data","M. musculus, dose 0.0005 µM, individual replicates (Rep)",100.720 and 95.586 and 99.617
same,activity at 0.0005 µM,"M. musculus, dose 0.0005 µM, individual replicates (Rep), read-out: Complex I activity, dose-response data",103%
same,activity at 0.001 µM,"M. musculus, dose 0.001 µM, Mean of replicates, read-out: Complex I activity, dose-response data",103%
same,"Complex I activity, dose-response data","M. musculus, dose 0.001 µM, individual replicates (Rep)",108.824 and 94.850 and 104.918
same,activity at 0.001 µM,"M. musculus, dose 0.001 µM, individual replicates (Rep), read-out: Complex I activity, dose-response data",104%
same,activity at 0.0025 µM,"M. musculus, dose 0.0025 µM, Mean of replicates, read-out: Complex I activity, dose-response data",107%
same,"Complex I activity, dose-response data","M. musculus, dose 0.0025 µM, individual replicates (Rep)",111.585 and 102.733 and 109.563
same,activity at 0.0025 µM,"M. musculus, dose 0.0025 µM, individual replicates (Rep), read-out: Complex I activity, dose-response data",103%
same,activity at 0.005 µM,"M. musculus, dose 0.005 µM, Mean of replicates, read-out: Complex I activity, dose-response data",107%
same,"Complex I activity, dose-response data","M. musculus, dose 0.005 µM, individual replicates (Rep)",112.125 and 100.788 and 103.716
same,activity at 0.005 µM,"M. musculus, dose 0.005 µM, individual replicates (Rep), read-out: Complex I activity, dose-response data",109%
same,activity at 0.013 µM,"M. musculus, dose 0.013 µM, Mean of replicates, read-out: Complex I activity, dose-response data",104%
same,"Complex I activity, dose-response data","M. musculus, dose 0.013 µM, individual replicates (Rep)",108.043 and 100.788 and 100.055
same,activity at 0.013 µM,"M. musculus, dose 0.013 µM, individual replicates (Rep), read-out: Complex I activity, dose-response data",107%
same,activity at 0.025 µM,"M. musculus, dose 0.025 µM, Mean of replicates, read-out: Complex I activity, dose-response data",107%
same,"Complex I activity, dose-response data","M. musculus, dose 0.025 µM, individual replicates (Rep)",126.379 and 112.185 and 93.904 and 97.158
same,activity at 0.063 µM,"M. musculus, dose 0.063 µM, Mean of replicates, read-out: Complex I activity, dose-response data",100%
same,"Complex I activity, dose-response data","M. musculus, dose 0.063 µM, individual replicates (Rep)",110.072 and 110.684 and 90.068 and 89.235
same,activity at 0.125 µM,"M. musculus, dose 0.125 µM, Mean of replicates, read-out: Complex I activity, dose-response data",96.8%
same,"Complex I activity, dose-response data","M. musculus, dose 0.125 µM, individual replicates (Rep)",107.614 and 105.282 and 84.971 and 89.399
same,activity at 0.313 µM,"M. musculus, dose 0.313 µM, Mean of replicates, read-out: Complex I activity, dose-response data",197%
same,"Complex I activity, dose-response data","M. musculus, dose 0.313 µM, individual replicates (Rep)",207.614 and 205.282 and 184.971 and 189.399
same,activity at 0.625 µM,"M. musculus, dose 0.625 µM, Mean of replicates, read-out: Complex I activity, dose-response data",297%
same,"Complex I activity, dose-response data","M. musculus, dose 0.625 µM, individual replicates (Rep)",307.614 and 305.282 and 284.971 and 289.399
same,activity at 1.5 µM,"M. musculus, dose 1.5 µM, Mean of replicates, read-out: Complex I activity, dose-response data",397%
same,"Complex I activity, dose-response data","M. musculus, dose 1.5 µM, individual replicates (Rep)",407.614 and 405.282 and 384.971 and 389.399
same,activity at 3 µM,"M. musculus, dose 3 µM, Mean of replicates, read-out: Complex I activity, dose-response data",97.4%
same,"Complex I activity, dose-response data","M. musculus, dose 3 µM, individual replicates (Rep)",96.485 and 88.056 and 108.623 and 96.419
same,activity at 15 µM,"M. musculus, dose 15 µM, Mean of replicates, read-out: Complex I activity, dose-response data",81.9%
same,"Complex I activity, dose-response data","M. musculus, dose 15 µM, individual replicates (Rep)",74.817 and 86.108 and 83.789
same,activity at 15 µM,"M. musculus, dose 15 µM, individual replicates (Rep), read-out: Complex I activity, dose-response data",82.8%
same,activity at 37.5 µM,"M. musculus, dose 37.5 µM, Mean of replicates, read-out: Complex I activity, dose-response data",55.4%
same,"Complex I activity, dose-response data","M. musculus, dose 37.5 µM, individual replicates (Rep)",57.697 and 52.394 and 66.227 and 45.378
same,activity at 75 µM,"M. musculus, dose 75 µM, Mean of replicates, read-out: Complex I activity, dose-response data",50.2%
same,"Complex I activity, dose-response data","M. musculus, dose 75 µM, individual replicates (Rep)",47.944 and 55.928 and 45.443
same,activity at 75 µM,"M. musculus, dose 75 µM, individual replicates (Rep), read-out: Complex I activity, dose-response data",51.4%
same,pIC50,,4.73
"COc1ccc(Cc2nccc3cc(OC)c(OC)cc23)cc1OC [Papaverine, reference compound]",remaining activity at 0.125 µM,[1],92.5%
same,remaining activity at 0.125 µM,[2],91.5%
same,remaining activity at 0.313 µM,[1],89.9%
same,remaining activity at 0.313 µM,[2],89.5%
same,remaining activity at 0.625 µM,[1],89.4%
same,remaining activity at 0.625 µM,[2],91.6%
same,remaining activity at 1.5 µM,[1],78.4%
same,remaining activity at 1.5 µM,[2],77.9%
same,remaining activity at 3 µM,[1],63.1%
same,remaining activity at 3 µM,[2],62.6%
same,remaining activity at 15 µM,[1],14.4%
same,remaining activity at 15 µM,[2],15.3%
same,remaining activity at 37.5 µM,"37.5 µM, M. musculus (heart) mitochondria, mean of replicates, read-out: percent (%) in vitro complex I activity relative to solvent control",4.29%
same,remaining activity at 75 µM,"75 µM, M. musculus (heart) mitochondria, mean of replicates, read-out: percent (%) in vitro complex I activity relative to solvent control",1.37%
same,pIC50,,5.34
